{"source": "paper PMC9146163", "about": "“Novel Au Carbene Complexes as Promising Multi-Target Agents in Breast Cancer Treatment” (Pharmaceuticals, 2022)", "system": "caspases 3/7, 8, and 9 in MDA-MB-231 cells", "assay": "Caspase-Glo assay, MDA-MB-231", "format": "cell-based, human", "settings": "IC50 value, 24 h; vs vehicle", "experimental": "The activities of caspases 3/7, 8, and 9 were measured by using the Caspase-Glo Assay according to the manufacturer’s guidelines (Caspase-Glo 3/7, 8, and 9 Assay Systems, Promega Corporation, Madison, WI, USA), as already described. The luminescence was detected in a plate-reading luminometer (Synergy H1 Hybrid Reader, BioTek) for 30 min to 3 h (λex/em = 490/570 nm). Results were reported as signal-to-noise ratio (background was determined from the culture medium without cells). The experiments were performed in triplicate.", "data": [{"smiles": "Cn1ccn(CC([O-])c2ccccc2)[c]1=[Au+]=[c]1n(C)ccn1CC([O-])c1ccccc1.[Cl-].[Na+].[Na+]", "note": "(stereo not drawn) [Compound 1]", "values": [{"measurement": "caspase-3 and -7 activity, MDA-MB-231", "value": "clear increase"}, {"measurement": "caspase-8 activity, MDA-MB-231", "value": "significant rise"}, {"measurement": "caspase-9 activity, MDA-MB-231", "value": "no increase"}]}]}
